What was measured:
[1] = tested on: Leishmania amazonensis; assay: Antileishmanial activity against leishmania amazonensis promastigotes MHOM/BR/77/LTB0016 assessed as parasite growth inhibition incubated for 72 hrs by resazurin dye based analysis; format: functional, organism-based; details: MHOM/BR/77/LTB0016, 72 h
[2] = Cytotoxicity against mouse Peritoneal macrophage cell assessed as inhibition of cell viability incubated for 72 hrs by resazurin dye based analysis; format: toxicity; details: peritoneal macrophages
[3] = tested on: Leishmania amazonensis; assay: Antileishmanial activity against leishmania amazonensis intracellular amastigotes assessed as parasite growth inhibition measured after 72 hrs by hematological dye based microscopic analysis; format: functional, organism-based
[4] = Selectivity index, ratio of CC50 for cytotoxicity against murine peritoneal macrophages assessed as inhibition of cell viability to IC50 for antileishmanial activity against leishmania amazonensis intracellular amastigotes assessed as parasite growth inhibition; format: toxicity, cell-based, Macrophage; details: mouse, read-out: Ratio CC50/IC50

## CC1(Cc2ccccc2)CC(S(C)(=O)=O)=C(c2ccc(/C(N)=N/O)cc2)O1 (stereo unspecified)
[1]
  IC50: 91.4 µM

## CC1(Cc2ccccc2)CC(C(=O)NCCN2CCCC2)=C(c2ccc(/C(N)=N/O)cc2)O1 (stereo unspecified)
[1]
  IC50: 102 µM

## CC1(Cc2ccccc2)CC(C(=O)N2CCOCC2)=C(c2ccc(/C(N)=N/O)cc2)O1 (stereo unspecified)
[1]
  IC50: > 128 µM

## CC1(Cc2ccccc2)CC(C(=O)NC2CCCCC2)=C(c2ccc(/C(N)=N/O)cc2)O1 (stereo unspecified)
[1]
  IC50: 43.6 µM

## CCOC(=O)C1=C(c2ccc(/C(N)=N/O)cc2)OC(C)(Cc2ccccc2)C1 (stereo unspecified)
[1]
  IC50: 6.3 µM
[2]
  CC50 at 72 h: 112 µM
[3]
  IC50: 1.3 µM
[4]
  selectivity ratio: 87.8

## CCCCNC(=O)C1=C(c2ccc(/C(N)=N/O)cc2)OC(C)(Cc2ccccc2)C1 (stereo unspecified)
[1]
  IC50: 92.6 µM

## COC(=O)C1=C(c2ccc(/C(N)=N/O)cc2)OC(C)(Cc2ccccc2)C1 (stereo unspecified)
[1]
  IC50: 4.7 µM
[2]
  CC50 at 72 h: 70.6 µM
[3]
  IC50: 2.3 µM
[4]
  selectivity ratio: 30.7

## CCCCS(=O)(=O)C1=C(c2ccc(/C(N)=N/O)cc2)OC(C)(Cc2ccccc2)C1 (stereo unspecified)
[1]
  IC50: 63.5 µM

## CCN(CC)C(=O)C1=C(c2ccc(/C(N)=N/O)cc2)OC(C)(Cc2ccccc2)C1 (stereo unspecified)
[1]
  IC50: 60.4 µM

## CC1(Cc2ccccc2)CC(C(=O)NC2CCCC2)=C(c2ccc(/C(N)=N/O)cc2)O1 (stereo unspecified)
[1]
  IC50: 61.1 µM

— ChEMBL document CHEMBL6074651, “Hit-to-lead optimization of 4,5-dihydrofuran-3-sulfonyl scaffold against Leishmania amazonensis. Effect of an aliphatic moiety” (Eur J Med Chem, 2024)
